Assay [1] addresses T1, bone morphogenetic protein-2 (BMP-2) [骨形态发生蛋白-2(BMP-2)] (Homo sapiens, UniProt P12643).
T1 sequence (P12643 283-396): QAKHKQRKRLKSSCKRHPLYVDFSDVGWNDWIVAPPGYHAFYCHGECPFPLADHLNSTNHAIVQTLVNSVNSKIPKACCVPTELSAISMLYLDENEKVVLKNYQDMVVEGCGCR
Put plainly: Glass surface BMP-2 binding, protein immunofluorescence. The conditions noted are these: relative to (Lys0.4Nle0.6)30 polymer; grafted on glass.

The next assay relates to growth factors [生长因子]. In words: Glass surface growth factor binding, peptide versus polymer (overall). The conditions noted are these: peptide versus (Lys0.4Nle0.6)30 polymer; grafted on glass.
Assay [2] addresses T2, fibroblast growth factor-21 (FGF-21) [成纤维细胞生长因子-21(FGF-21)] (Homo sapiens, UniProt Q9NSA1).
T2 sequence (Q9NSA1 29-209): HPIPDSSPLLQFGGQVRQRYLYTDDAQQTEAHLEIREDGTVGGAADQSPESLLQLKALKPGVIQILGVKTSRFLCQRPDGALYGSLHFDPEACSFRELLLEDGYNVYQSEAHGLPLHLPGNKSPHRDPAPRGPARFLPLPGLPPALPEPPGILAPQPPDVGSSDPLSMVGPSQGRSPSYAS
In words: Glass surface FGF-21 binding, protein immunofluorescence. As to conditions: relative to (Lys0.4Nle0.6)30 polymer; grafted on glass.

A further assay concerns the target TGF-β (Homo sapiens, UniProt P01137). In words: Glass surface TGF-β binding, peptide versus polymer. As to conditions: relative to (Lys0.4Nle0.6)30 polymer; grafted on glass.
Assay [3] deals with platelet-derived factor PDGF-AA [血小板衍生因子PDGF-AA] (Homo sapiens, UniProt P04085). In words: Glass surface PDGF-AA binding, peptide versus polymer. As to conditions: relative to (Lys0.4Nle0.6)30 polymer; grafted on glass.

TGF-β, sequence (P01137 279-390 limits assumed): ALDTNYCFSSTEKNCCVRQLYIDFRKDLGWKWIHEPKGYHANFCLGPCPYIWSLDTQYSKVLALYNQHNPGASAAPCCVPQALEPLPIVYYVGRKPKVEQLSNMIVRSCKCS

As to “(L-Lys)-(L-Nor)-(D-Lys)-(D-Nor)-(L-Nor)-(L-Lys)-(D-Nor)-(D-Lys)-(L-Nor)-(D-Nor)-(L-Lys)-(L-Nor)-(D-Lys)-(D-Nor)-(L-Nor)-(L-Lys)-(D-Nor)-(D-Lys)-(L-Nor)-(D-Nor)-(L-Lys)-(L-Nor)-(D-Lys)-(D-Nor)-(L-Nor)-(L-Lys)-(D-Nor)-(L-Nor)-(L-Cys) [Lys0.4Nle0.6多肽]”, the “BMP-2 binding amount, multiple of peptide polymer” value in assay [1] came to 1.99 fold. Besides, the “growth factor binding compared with polymer” value in the assay on growth factors [生长因子] is “优于聚合物”. The “FGF-21 binding amount, multiple of peptide polymer” value in assay [2] is given as 2.55 fold. For the same substance, the “TGF-β binding amount, multiple of peptide polymer” value at TGF-β was found to be 1.61 fold. Also, the “PDGF-AA binding amount, multiple of peptide polymer” value in assay [3] amounted to 2.06 fold.

For the origin of these results see patent CN115252762A, “一种高分子化合物的生长因子结合用途” (East China University of Science and Technology, priority 2021, dated 2022).
